Literature values as cited in article PMC6099957, “Mouse β-Defensin 3, A Defensin Inhibitor of Both Its Endogenous and Exogenous Potassium Channels” (Molecules : A Journal of Synthetic Chemistry and Natural …, 2018).
No end group written: not given here.

Tested on: Kv1.3
Details: read-out: IC50 as Kv1.3 inhibitor; cited from earlier work
Excerpt: Here, the Kv1.3 channel-sensitive hBD2 was used as the molecular template to search potential mouse β-defensin from the biological databases. […] Besides the sequence similarity, the distribution of six cysteine amino acid residues was also identical. In order to better understand the structural feature of mBD3, its structure was modeled by the tem ...

**Q.** Which IC50 does the source give for “hBD1: human β-defensin, Kv1.3 channel blocker binding the pore region (DHYNCVSSGGQCLYSACPIFTKIQGTCYRGKAKCCK; ends and bridges not checked; cysteine pairing not given here; UniProt P60022 33-68, looked up)” here?
**A.** 11.8 µM
